Reference: ChEMBL document CHEMBL4804284
Activity calls are given as the source filed them. No cut-off for these calls is given here.

Legend:
[1] = target: Homeodomain-interacting protein kinase 1 (Homo sapiens) (UniProt Q86Z02); assay: Inhibition of DNA-tagged human HIPK1 assessed as percent of control at 50000 nM by qPCR analysis relative to control; set-up: scale not given: the % may be the effect or the level left
[2] = test system: Receptor-type tyrosine-protein kinase FLT3 (Homo sapiens), P36888 [UNDEFINED MUTATION]; assay: Inhibition of DNA-tagged human FLT3 ITD mutant assessed as percent of control at 50000 nM by qPCR analysis relative to control; set-up: scale not given: the % may be the effect or the level left
[3] = target: Vascular endothelial growth factor receptor 1 (Homo sapiens) (UniProt P17948); assay: Inhibition of DNA-tagged human FLT1 assessed as percent of control at 50000 nM by qPCR analysis relative to control; set-up: scale not given: the % may be the effect or the level left
[4] = target: Ephrin type-B receptor 4 (Homo sapiens) (UniProt P54760); assay: Inhibition of DNA-tagged human EPHB4 assessed as percent of control at 50000 nM by qPCR analysis relative to control; set-up: scale not given: the % may be the effect or the level left
[5] = target: Ephrin type-A receptor 8 (Homo sapiens) (UniProt P29322); assay: Inhibition of DNA-tagged human EPHA8 assessed as percent of control at 50000 nM by qPCR analysis relative to control; set-up: scale not given: the % may be the effect or the level left
[6] = target: Serine/threonine-protein kinase 17B (Homo sapiens) (UniProt O94768); assay: Inhibition of DNA-tagged human DRAK2 assessed as percent of control at 50000 nM by qPCR analysis relative to control; set-up: scale not given: the % may be the effect or the level left
[7] = target: Myotonin-protein kinase (Homo sapiens) (UniProt Q09013); assay: Inhibition of DNA-tagged human DMPK assessed as percent of control at 50000 nM by qPCR analysis relative to control; set-up: scale not given: the % may be the effect or the level left
[8] = target: Epithelial discoidin domain-containing receptor 1 (Homo sapiens) (UniProt Q08345); assay: Inhibition of DNA-tagged human DDR1 assessed as percent of control at 50000 nM by qPCR analysis relative to control; set-up: scale not given: the % may be the effect or the level left
[9] = target: Casein kinase I isoform gamma-2 (Homo sapiens) (UniProt P78368); assay: Inhibition of DNA-tagged human CSNK1G2 assessed as percent of control at 50000 nM by qPCR analysis relative to control; set-up: scale not given: the % may be the effect or the level left
[10] = target: Casein kinase I isoform alpha-like (Homo sapiens) (UniProt Q8N752); assay: Inhibition of DNA-tagged human CSNK1A1L assessed as percent of control at 50000 nM by qPCR analysis relative to control; set-up: scale not given: the % may be the effect or the level left
[11] = target: BMP-2-inducible protein kinase (Homo sapiens) (UniProt Q9NSY1); assay: Inhibition of DNA-tagged human BIKE assessed as percent of control at 50000 nM by qPCR analysis relative to control; set-up: scale not given: the % may be the effect or the level left
[12] = target: Mitogen-activated protein kinase kinase kinase 5 (Homo sapiens) (UniProt Q99683); assay: Inhibition of DNA-tagged human ASK1 assessed as percent of control at 50000 nM by qPCR analysis relative to control; set-up: scale not given: the % may be the effect or the level left
[13] = test system: Tyrosine-protein kinase ABL1 (Homo sapiens), P00519 [Q252H]; assay: Inhibition of DNA-tagged phosphorylated human ABL1 Q252H mutant assessed as percent of control at 50000 nM by qPCR analysis relative to control; set-up: scale not given: the % may be the effect or the level left
[14] = test system: U-266; assay: Cytotoxicity against human U-266 cells at 0.1-100 uM assessed as decrease in cell viability relative to control; assay type: functional, cell-based
[15] = test system: Mast/stem cell growth factor receptor Kit (Homo sapiens), P10721 [A829P]; assay: Inhibition of DNA-tagged human KIT A829P mutant assessed as percent of control at 50000 nM by qPCR analysis relative to control; set-up: scale not given: the % may be the effect or the level left
[16] = target: LIM domain kinase 1 (Homo sapiens) (UniProt P53667); assay: Inhibition of DNA-tagged human LIMK1 assessed as percent of control at 50000 nM by qPCR analysis relative to control; set-up: scale not given: the % may be the effect or the level left
[17] = target: Mitogen-activated protein kinase kinase kinase 1 (Homo sapiens) (UniProt Q13233); assay: Inhibition of DNA-tagged human MAP3K1 assessed as percent of control at 50000 nM by qPCR analysis relative to control; set-up: scale not given: the % may be the effect or the level left
[18] = target: Serine/threonine-protein kinase MARK2 (Homo sapiens) (UniProt Q7KZI7); assay: Inhibition of DNA-tagged human MARK2 assessed as percent of control at 50000 nM by qPCR analysis relative to control; set-up: scale not given: the % may be the effect or the level left
[19] = target: Serine/threonine-protein kinase Nek9 (Homo sapiens) (UniProt Q8TD19); assay: Inhibition of DNA-tagged human NEK9 assessed as percent of control at 50000 nM by qPCR analysis relative to control; set-up: scale not given: the % may be the effect or the level left
[20] = target: Serine/threonine-protein kinase NIM1 (Homo sapiens) (UniProt Q8IY84); assay: Inhibition of DNA-tagged human NIM1 assessed as percent of control at 50000 nM by qPCR analysis relative to control; set-up: scale not given: the % may be the effect or the level left
[21] = target: Mitogen-activated protein kinase 12 (Homo sapiens) (UniProt P53778); assay: Inhibition of DNA-tagged human p38-gamma assessed as percent of control at 50000 nM by qPCR analysis relative to control; set-up: scale not given: the % may be the effect or the level left
[22] = target: Cyclin-dependent kinase 14 (Homo sapiens) (UniProt O94921); assay: Inhibition of DNA-tagged human PFTK1 assessed as percent of control at 50000 nM by qPCR analysis relative to control; set-up: scale not given: the % may be the effect or the level left
[23] = target: Serine/threonine-protein kinase PLK2 (Homo sapiens) (UniProt Q9NYY3); assay: Inhibition of DNA-tagged human PLK2 assessed as percent of control at 50000 nM by qPCR analysis relative to control; set-up: scale not given: the % may be the effect or the level left
[24] = target: Serine/threonine-protein kinase PLK4 (Homo sapiens) (UniProt O00444); assay: Inhibition of DNA-tagged human PLK4 assessed as percent of control at 50000 nM by qPCR analysis relative to control; set-up: scale not given: the % may be the effect or the level left
[25] = target: Protein kinase C delta type (Homo sapiens) (UniProt Q05655); assay: Inhibition of DNA-tagged human PRKCD assessed as percent of control at 50000 nM by qPCR analysis relative to control; set-up: scale not given: the % may be the effect or the level left
[26] = target: Serine/threonine-protein kinase SBK1 (Homo sapiens) (UniProt Q52WX2); assay: Inhibition of DNA-tagged human SBK1 assessed as percent of control at 50000 nM by qPCR analysis relative to control; set-up: scale not given: the % may be the effect or the level left
[27] = target: Serine/threonine-protein kinase SIK2 (Homo sapiens) (UniProt Q9H0K1); assay: Inhibition of DNA-tagged human SIK2 assessed as percent of control at 50000 nM by qPCR analysis relative to control; set-up: scale not given: the % may be the effect or the level left
[28] = target: Serine/threonine-protein kinase tousled-like 1 (Homo sapiens) (UniProt Q9UKI8); assay: Inhibition of DNA-tagged human TLK1 assessed as percent of control at 50000 nM by qPCR analysis relative to control; set-up: scale not given: the % may be the effect or the level left
[29] = target: Serine/threonine-protein kinase 32B (Homo sapiens) (UniProt Q9NY57); assay: Inhibition of DNA-tagged human YANK2 assessed as percent of control at 50000 nM by qPCR analysis relative to control; set-up: scale not given: the % may be the effect or the level left
[30] = target: Serine/threonine-protein kinase 25 (Homo sapiens) (UniProt O00506); assay: Inhibition of DNA-tagged human YSK1 assessed as percent of control at 50000 nM by qPCR analysis relative to control; set-up: scale not given: the % may be the effect or the level left

Serine/threonine-protein kinase 32B (Homo sapiens), sequence (Q9NY57 whole entry): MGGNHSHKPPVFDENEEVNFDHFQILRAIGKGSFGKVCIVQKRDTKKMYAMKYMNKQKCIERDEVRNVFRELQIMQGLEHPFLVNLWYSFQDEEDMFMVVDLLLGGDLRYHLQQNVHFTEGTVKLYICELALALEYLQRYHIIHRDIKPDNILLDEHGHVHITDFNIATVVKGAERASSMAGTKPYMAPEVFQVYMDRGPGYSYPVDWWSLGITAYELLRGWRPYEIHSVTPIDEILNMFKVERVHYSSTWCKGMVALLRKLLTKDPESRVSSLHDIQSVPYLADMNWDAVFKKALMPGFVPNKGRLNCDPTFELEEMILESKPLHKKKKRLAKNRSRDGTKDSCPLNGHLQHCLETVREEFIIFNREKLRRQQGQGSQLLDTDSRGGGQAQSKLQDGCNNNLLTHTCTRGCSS
BMP-2-inducible protein kinase (Homo sapiens), sequence (Q9NSY1 whole entry, looked up): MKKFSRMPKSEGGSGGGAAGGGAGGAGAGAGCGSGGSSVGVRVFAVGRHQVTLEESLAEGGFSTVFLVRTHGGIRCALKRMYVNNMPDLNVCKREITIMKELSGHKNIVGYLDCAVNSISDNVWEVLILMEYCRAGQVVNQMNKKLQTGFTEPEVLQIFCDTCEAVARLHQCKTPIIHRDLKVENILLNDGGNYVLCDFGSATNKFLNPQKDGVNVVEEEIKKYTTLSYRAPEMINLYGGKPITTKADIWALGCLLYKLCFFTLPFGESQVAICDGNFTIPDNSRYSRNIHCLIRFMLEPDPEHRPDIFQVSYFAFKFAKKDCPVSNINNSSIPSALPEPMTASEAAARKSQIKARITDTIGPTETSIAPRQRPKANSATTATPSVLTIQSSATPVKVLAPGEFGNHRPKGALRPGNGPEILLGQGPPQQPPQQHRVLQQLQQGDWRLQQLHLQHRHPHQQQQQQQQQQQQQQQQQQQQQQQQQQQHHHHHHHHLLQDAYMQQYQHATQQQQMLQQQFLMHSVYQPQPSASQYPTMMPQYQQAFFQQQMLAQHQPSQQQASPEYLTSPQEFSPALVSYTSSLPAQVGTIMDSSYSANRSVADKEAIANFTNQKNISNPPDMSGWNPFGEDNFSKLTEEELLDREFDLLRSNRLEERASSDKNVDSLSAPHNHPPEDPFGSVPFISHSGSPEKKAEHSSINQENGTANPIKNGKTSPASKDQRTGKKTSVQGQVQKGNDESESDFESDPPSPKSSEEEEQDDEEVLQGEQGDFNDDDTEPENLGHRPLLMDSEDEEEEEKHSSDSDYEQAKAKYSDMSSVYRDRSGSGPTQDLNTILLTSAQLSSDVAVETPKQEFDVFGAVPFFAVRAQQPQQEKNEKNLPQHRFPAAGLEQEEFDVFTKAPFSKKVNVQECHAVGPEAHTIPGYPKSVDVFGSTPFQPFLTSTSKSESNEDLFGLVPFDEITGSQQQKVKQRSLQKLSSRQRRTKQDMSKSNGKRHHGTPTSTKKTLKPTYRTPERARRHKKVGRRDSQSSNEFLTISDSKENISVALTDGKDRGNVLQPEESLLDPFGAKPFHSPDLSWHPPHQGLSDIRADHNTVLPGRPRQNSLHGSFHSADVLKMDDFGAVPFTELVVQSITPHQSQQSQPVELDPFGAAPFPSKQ
Serine/threonine-protein kinase MARK2 (Homo sapiens), sequence (Q7KZI7 whole entry): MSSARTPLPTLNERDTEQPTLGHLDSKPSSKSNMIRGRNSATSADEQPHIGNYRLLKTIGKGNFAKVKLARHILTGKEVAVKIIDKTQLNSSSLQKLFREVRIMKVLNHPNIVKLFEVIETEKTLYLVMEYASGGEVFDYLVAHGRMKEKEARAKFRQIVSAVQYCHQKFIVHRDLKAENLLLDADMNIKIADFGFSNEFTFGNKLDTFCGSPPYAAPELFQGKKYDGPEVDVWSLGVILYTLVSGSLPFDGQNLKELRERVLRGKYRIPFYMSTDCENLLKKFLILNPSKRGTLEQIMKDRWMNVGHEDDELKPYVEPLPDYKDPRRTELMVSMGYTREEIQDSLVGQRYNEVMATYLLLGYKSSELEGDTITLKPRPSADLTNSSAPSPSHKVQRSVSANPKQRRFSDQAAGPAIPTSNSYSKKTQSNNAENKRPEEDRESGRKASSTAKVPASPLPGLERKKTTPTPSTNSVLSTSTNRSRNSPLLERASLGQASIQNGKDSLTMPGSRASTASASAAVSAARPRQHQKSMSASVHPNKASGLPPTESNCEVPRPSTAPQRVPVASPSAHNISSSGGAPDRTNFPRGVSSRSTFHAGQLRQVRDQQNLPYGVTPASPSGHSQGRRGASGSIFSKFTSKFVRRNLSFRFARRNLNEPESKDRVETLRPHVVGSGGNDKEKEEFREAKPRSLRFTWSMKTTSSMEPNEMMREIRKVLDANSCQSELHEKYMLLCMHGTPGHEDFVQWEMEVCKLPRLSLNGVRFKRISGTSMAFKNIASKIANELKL
Vascular endothelial growth factor receptor 1 (Homo sapiens), sequence (P17948 whole entry): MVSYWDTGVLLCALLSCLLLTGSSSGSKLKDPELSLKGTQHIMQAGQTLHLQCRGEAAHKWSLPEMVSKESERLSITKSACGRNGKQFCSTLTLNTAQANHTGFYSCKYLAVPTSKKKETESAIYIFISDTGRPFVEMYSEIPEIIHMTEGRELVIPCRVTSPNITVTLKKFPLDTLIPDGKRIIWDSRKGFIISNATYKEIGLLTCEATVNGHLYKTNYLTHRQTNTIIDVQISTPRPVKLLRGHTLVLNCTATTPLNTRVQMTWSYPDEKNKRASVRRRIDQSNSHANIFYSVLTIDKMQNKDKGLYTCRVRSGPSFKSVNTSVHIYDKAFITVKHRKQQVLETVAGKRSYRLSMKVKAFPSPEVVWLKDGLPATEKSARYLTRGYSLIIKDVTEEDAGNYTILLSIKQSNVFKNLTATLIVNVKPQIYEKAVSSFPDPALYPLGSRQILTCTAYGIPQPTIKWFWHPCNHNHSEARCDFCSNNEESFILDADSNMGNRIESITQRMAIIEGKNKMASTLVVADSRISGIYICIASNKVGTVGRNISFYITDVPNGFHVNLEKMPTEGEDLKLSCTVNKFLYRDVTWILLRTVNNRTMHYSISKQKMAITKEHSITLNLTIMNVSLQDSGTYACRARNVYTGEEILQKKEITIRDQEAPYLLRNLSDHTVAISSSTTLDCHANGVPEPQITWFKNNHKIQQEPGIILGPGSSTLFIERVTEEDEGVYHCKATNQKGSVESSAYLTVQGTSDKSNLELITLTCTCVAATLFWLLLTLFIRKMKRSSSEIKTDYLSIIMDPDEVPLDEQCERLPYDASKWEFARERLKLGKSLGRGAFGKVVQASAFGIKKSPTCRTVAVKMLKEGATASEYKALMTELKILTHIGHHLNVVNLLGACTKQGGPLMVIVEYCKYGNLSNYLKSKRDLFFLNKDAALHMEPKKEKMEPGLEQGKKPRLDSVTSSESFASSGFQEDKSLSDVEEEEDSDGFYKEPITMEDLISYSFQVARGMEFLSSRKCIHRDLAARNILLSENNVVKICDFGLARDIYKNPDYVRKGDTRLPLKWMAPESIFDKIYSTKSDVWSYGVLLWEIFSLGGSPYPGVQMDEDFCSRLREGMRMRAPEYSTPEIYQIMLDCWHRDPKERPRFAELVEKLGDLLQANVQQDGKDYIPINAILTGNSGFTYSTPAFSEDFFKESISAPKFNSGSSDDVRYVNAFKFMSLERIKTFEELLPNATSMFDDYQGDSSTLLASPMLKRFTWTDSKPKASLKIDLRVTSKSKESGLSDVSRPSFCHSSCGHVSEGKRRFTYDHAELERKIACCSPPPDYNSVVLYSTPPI
Homeodomain-interacting protein kinase 1 (Homo sapiens), sequence (Q86Z02 whole entry, looked up): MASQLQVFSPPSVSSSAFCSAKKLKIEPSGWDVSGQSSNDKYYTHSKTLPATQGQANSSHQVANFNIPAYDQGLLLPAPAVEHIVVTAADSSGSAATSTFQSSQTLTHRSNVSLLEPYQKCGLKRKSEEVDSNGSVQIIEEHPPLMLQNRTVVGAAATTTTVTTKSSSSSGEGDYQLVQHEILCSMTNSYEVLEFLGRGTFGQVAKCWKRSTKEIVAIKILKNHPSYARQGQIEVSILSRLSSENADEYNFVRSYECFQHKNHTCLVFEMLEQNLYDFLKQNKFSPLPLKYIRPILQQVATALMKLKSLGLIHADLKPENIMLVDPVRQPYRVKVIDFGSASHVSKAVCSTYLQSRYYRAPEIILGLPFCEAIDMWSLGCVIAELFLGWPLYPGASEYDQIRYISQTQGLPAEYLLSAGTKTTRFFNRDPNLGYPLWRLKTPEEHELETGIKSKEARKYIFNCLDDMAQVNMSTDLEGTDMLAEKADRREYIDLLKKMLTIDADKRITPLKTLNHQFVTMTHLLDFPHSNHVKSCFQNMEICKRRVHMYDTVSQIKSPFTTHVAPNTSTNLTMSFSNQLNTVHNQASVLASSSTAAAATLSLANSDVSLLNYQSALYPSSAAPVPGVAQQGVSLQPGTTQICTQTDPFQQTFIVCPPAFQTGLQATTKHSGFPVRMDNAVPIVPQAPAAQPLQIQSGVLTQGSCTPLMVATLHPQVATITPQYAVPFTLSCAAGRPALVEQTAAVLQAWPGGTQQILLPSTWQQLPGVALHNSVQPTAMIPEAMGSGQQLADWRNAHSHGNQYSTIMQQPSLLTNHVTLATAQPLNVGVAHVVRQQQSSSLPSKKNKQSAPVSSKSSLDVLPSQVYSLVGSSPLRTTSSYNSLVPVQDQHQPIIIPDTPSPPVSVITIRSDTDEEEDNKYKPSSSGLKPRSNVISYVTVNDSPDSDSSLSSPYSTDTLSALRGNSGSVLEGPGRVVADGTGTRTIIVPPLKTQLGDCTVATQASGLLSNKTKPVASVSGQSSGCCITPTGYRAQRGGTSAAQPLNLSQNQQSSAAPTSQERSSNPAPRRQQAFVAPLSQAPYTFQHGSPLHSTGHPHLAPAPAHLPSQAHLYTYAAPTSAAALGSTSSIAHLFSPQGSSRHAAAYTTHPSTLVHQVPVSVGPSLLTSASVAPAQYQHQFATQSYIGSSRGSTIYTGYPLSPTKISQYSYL

Work on `CN1C(=O)/C(=C2/C(=O)Nc3ccccc32)c2ccccc21` yielded an Activity [1] of 83%, an Activity [2] of 76% and an Activity [3] of 93%. It also gave an Activity [4] of 98%, an Activity [5] of 94% and an Activity [6] of 100%. It also gave an Activity [7] of 84%, an Activity [8] of 84% and an Activity [9] of 93%. The Activity [10] was 97%, the Activity [11] was 95% and the Activity [12] was 100%. The Activity [13] was 100%, the Activity [14] was “Active” and the Activity [15] was 63%. It also gave an Activity [16] of 84%, an Activity [17] of 83% and an Activity [18] of 75%. The Activity [19] was 33%, the Activity [20] was 86% and the Activity [21] was 92%. For the same compound, the Activity [22] was 94%, the Activity [23] was 94% and the Activity [24] was 79%. The Activity [25] was 100%, the Activity [26] was 100% and the Activity [27] was 95%. It also gave an Activity [28] of 81%, an Activity [29] of 100% and an Activity [30] of 40%.
